Read-outs that look alike come from different tables or passages of the source.
What was measured:
[1] = test system: STAT3 in HaCaT keratinocytes; assay: pSTAT3 level in HaCaT keratinocytes (MSD chemiluminescent detection); assay type: cell-based, human; conditions: for Relative level of pSAT3: HaCaT cells, stimuli for 30 minutes
Procedure: Prior to experiments, the DMEM medium was changed to KGM-SFM containing rEGF and bovine pituitary extract for 12 hours, and the cells then exposed to various stimuli for 30 minutes. Cell lysates were extracted in IP lysis buffer were diluted in MSD extraction buffer and 25 uL of the cell lysate containing 10 ug protein was used in the analysis via chemiluminescent detection (MSD Technology). To test for inhibition by WP1220 (WP), cells were pre-incubated with WP1220 prior to the addition of IFN α.

[2] = test system: human lung cancer xenografts; conditions: cited from earlier work
[3] = design: species or system CD1 mice; conditions: in vivo; for mean peak plasma concentration: CD1, mouse, iv
Procedure: Of central importance to the treatment of CNS gliomas and metastasis is the use of agents with sufficient CNS permeability and subsequent cytotoxic activity, of which there is direct evidence for WP1066 and indirect evidence for JSI-124. To determine the physiological doses of WP1066 that can be achieved in vivo, CD1 mice were given WP1066 as an intravenous bolus (10 or 40 mg/kg) or by oral gavage (40 mg/kg) and killed at various time points up to 24 hours after treatment. […] When WP1066 was delivered intraperitoneally at a dose of 100 mg/kg or intravenously at a dose of 10 mg/kg every other day for up to 2 weeks, plasma concentrations exceeded 1 μM, and CNS concentrations (with an intact blood-brain barrier) exceeded 62 μg/g of tissue (0.185 μM); concentrations in U87-MG malignant glioma-bearing animals exceeded 362 μg/g (1.08 μM). […] Fujita M, Zhu X, Sasaki K, et al., Inhibition Of STAT3 Promotes The Efficacy Of Adoptive Transfer Therapy Using Type-1 CTLs By Modulation Of The Immunological Microenvironment In A Murine Intracranial Glioma, J Immunol 2008; 180:2089-2098.

[4] = Toxicology of p-STAT3 inhibitors in mice (histology of systemic organs, Luxol fast blue staining of CNS axis); assay type: in vivo, C57BL/6J mice; conditions: for histological examination of the systemic organs: treated mice
Excerpt: The toxicological properties of the small molecule inhibitors of p-STAT3 appear favorable. […] Because p-STAT3 blockade agents are potent immune activators, nonspecific immune reactivity in the CNS remains a consideration. […] Fujita M, Zhu X, Sasaki K, et al., Inhibition Of STAT3 Promotes The Efficacy Of Adoptive Transfer Therapy Using Type-1 CTLs By Modulation Of The Immunological Microenvironment In A Murine Intracranial Glioma, J Immunol 2008; 180:2089-2098. This lack of induced autoimmunity may be due to STAT3's role as the key regulator of the generation of Th17 cells, which are primary immune cell mediators of autoimmunity. Thus, the inhibitors of p-STAT3 may also be inhibiting the mediators of CNS autoimmunity-Th 17 responses.

melanoma tumors (B16) = assay: WP1066 against established syngeneic intracerebral tumors; assay type: in vivo, C57BL/6J mice
Procedure: (§1) Iwamaru A, Szymanski S, Iwado E, et al., A Novel Inhibitor Of The STAT3 Pathway Induces Apoptosis In Malignant Glioma Cells Both In Vitro And In Vivo. Oncogene 2006; 26: 2435-2444. […] To determine whether treatment with WP1066 is efficacious against established syngeneic intracerebral tumors, C57BL/6J mice with melanoma tumors (B16) were treated by oral gavage with WP1066 starting on day 3 after tumor implantation. […] Kong L Y, Abou-Ghazal M K, Wei J, et al., A Novel Inhibitor Of STAT3 Activation Is Efficacious Against Established Central Nervous System Melanoma And Inhibits Regulatory T Cells, Clin Cancer Res (Submitted).
Fujita M, Zhu X, Sasaki K, et al., Inhibition Of STAT3 Promotes The Efficacy Of Adoptive Transfer Therapy Using Type-1 CTLs By Modulation Of The Immunological Microenvironment In A Murine Intracranial Glioma, J Immunol 2008; 180:2089-2098. […] Furthermore, when JSI-124 was combined with adoptive transfer of type I cytotoxic T lymphocytes, survival was further enhanced compared with treatment with either modality alone. The authors concluded that the inhibition of STAT3 could reverse the immune-suppressive immune microenvironment and promote the efficacy of adoptive transfer therapy. Id.

[5] = test system: human melanoma xenografts and syngeneic murine melanoma; assay: WP1066 in melanoma xenografts and syngeneic melanoma; assay type: in vivo; conditions: oral gavage
Procedure: as §1

[6] = test system: microglia, systemic APCs and T cells from patients with cancer; assay: WP1066 on immune cells obtained from patients with cancer; assay type: cell-based
Excerpt: We recently have shown that blocking STAT3 activity by treatment with WP1066 in microglia obtained from the CNS of patients with cancer upregulates co-stimulatory molecules (e.g., CD80, CD86). The expression of co-stimulatory molecules is necessary for T-cell proliferation, and if a T cell encounters APCs, such as microglia/microphages, without co-stimulatory molecules present, the T cells will be rendered anergic. […] Of note, this potent immune activation occurred in immune cells obtained from patients with disease refractory to other conventional immune activators, such as toll-like receptor agonists.

[7] = test system: CD4+CD25−CD62Lhi naïve T cells; assay: FoxP3 induction during inducible Treg (iTreg) differentiation; assay type: cell-based, C57BL/6J mice; conditions: 0, 0.1 and 1.0 μM, 96 hours, flow cytometry (FIG. 2)
Procedure: (§2) The blockade of activation of STAT3 and its subsequent nuclear translocation inhibits both tumorigenesis and tumor-mediated immunosuppression. […] CD4^+CD25^−CD62L^hi naïve T cells from C57BL/6J mice were stimulated by plate-bound anti-CD3 (2 μg/ml) and soluble anti-CD28 (2 μg/ml) in the presence of TGF-β1 (1 ng/ml) and hIL-2 (200 U/ml), with 0, 0.1, and 1.0 μM WP1066 for inducible Tregs (iTreg) differentiation. CD4^+CD25^+ T cells (natural Tregs, nTreg) were stimulated by plate-bound anti-CD3 (2 μg/ml) and soluble anti-CD28 (2 μg/ml) in the presence of hIL-2 (200 U/ml), with 0, 0.1, and 1.0 μM WP1066. Ninety-six hours after stimulation, the cells were analyzed for intracellular FoxP3 expression by flow cytometry. The percentage of FoxP3 expressing T cells is shown.
(§3) In additional experiments, CD4^+CD25^−CD62L^hi naïve T cells from C57BL/6J mice were stimulated by plate-bound anti-CD3 (2 μg/ml) and soluble anti-CD28 (2 μg/ml) in the presence of TGF-β1 (1 ng/ml) and hIL-2 (200 U/ml), with 0, 0.1, and 1.0 μM WP1066 for inducible Tregs (iTreg) differentiation. CD4^+CD25^+ T cells (natural Tregs, nTreg) were stimulated by plate-bound anti-CD3 (2 μg/ml) and soluble anti-CD28 (2 μg/ml) in the presence of hIL-2 (200 U/ml), with 0, 0.1, and 1.0 μM WP1066. Ninety-six hours after stimulation, the cells were analyzed for intracellular FoxP3 expression by flow cytometry.

[8] = test system: CD4+CD25+ T cells (natural Tregs); assay: FoxP3 expression in natural Tregs (nTreg); assay type: cell-based, C57BL/6J mice; conditions: 0, 0.1 and 1.0 μM, 96 hours, flow cytometry (FIG. 2)
Procedure: as §2, §3

[9] = test system: head and neck carcinoma (MDA1986), pancreatic cancer (MiaPaca2), bladder cancer, glioma (U-87), lymphoma, myeloma, leukemia; conditions: 40 mg/kg intraperitoneally every other day for 28 days; cited from earlier work
[10] = test system: malignant glioma xenografts (U-87 and U-373); conditions: cited from earlier work
[11] = test system: human breast tumor xenografts; conditions: cited from earlier work
[12] = test system: breast carcinoma cell lines with constitutively active STAT3; conditions: cited from earlier work
STAT3 = STAT3 (Homo sapiens, UniProt P40763); conditions: in vitro; cited from earlier work
[13] = animals treated with JSI-124 (Fujita et al.); cited from earlier work
[14] = test system: lymphoma and cervical cancer; conditions: cited from earlier work
intracerebral tumors = conditions: mouse, in vivo; cited from earlier work
[15] = test system: human breast carcinoma and syngeneic murine melanoma; conditions: not in carcinomas that lack constitutive expression of p-STAT3; cited from earlier work

Chain of STAT3 (P40763 whole entry, species assumed): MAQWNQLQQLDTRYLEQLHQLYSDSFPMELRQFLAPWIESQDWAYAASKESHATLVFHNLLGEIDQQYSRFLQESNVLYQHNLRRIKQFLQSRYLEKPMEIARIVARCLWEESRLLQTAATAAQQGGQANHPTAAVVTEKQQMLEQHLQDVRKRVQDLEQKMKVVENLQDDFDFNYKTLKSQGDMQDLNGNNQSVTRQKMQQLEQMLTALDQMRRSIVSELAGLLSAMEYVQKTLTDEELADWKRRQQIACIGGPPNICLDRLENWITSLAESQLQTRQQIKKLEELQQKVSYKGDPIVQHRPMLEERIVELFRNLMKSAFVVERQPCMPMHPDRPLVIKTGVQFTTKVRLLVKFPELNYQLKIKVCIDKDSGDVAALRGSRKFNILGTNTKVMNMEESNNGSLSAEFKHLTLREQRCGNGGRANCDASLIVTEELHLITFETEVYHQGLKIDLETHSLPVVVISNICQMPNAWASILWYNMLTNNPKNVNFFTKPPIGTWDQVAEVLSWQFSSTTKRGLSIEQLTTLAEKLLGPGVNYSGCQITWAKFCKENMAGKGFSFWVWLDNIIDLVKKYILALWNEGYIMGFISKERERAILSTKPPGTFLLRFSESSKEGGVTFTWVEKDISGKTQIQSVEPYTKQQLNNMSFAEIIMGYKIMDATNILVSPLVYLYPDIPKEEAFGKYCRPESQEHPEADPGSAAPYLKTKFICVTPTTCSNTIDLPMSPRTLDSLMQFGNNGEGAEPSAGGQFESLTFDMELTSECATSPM

## bFGF: basic fibroblast growth factor, stimulus in HaCaT pSTAT3 test
[1]
  Relative level of pSAT3: + (+=less than 200 fold)

## Cucurbitacin Q
[2]
  in vivo tumor growth: suppressed in vivo growth of human lung cancer xenografts

## C[C@H](NC(=O)/C(C#N)=C/c1cccc(Br)n1)c1ccccc1 [WP1066, (S,E)-3-(6-bromopyridin-2-yl)-2-cyano-N-(1-phenylethyl)acrylamide]
[3]; 10 mg/kg
  mean peak plasma concentration: 1.05 µM
[3]; 40 mg/kg
  mean peak plasma concentration: 4.31 µM
[3]; mouse, po, 40 mg/kg
  mean peak plasma concentration (oral bioavailability studies): greater than 2 μM
[4]; C57BL/6J mice
  induction of autoimmunity in CNS (Luxol fast blue staining): no evidence of induction of autoimmunity
[4]; mouse, in vivo
  local tolerability: localized inflammatory responses
[4]
  histological examination of the systemic organs: failed to reveal any major toxicities
Melanoma tumors (B16); established intracerebral tumors, immune-incompetent background
  in vivo efficacy in immune-incompetent background: ablated
Melanoma tumors (B16); oral gavage starting on day 3 after tumor implantation, vehicle control 0%
  animals surviving long-term: 80%
[5]
  tumor growth: marked growth suppression
[6]
  immune-suppressive cytokines such as TGF-β: inhibits
[6]; immune-suppressed patients
  production of pro-inflammatory cytokines (IL-2, IL-4, IL-12, IL-15) by systemic APCs: induces
[6]; microglia from the CNS of patients with cancer
  co-stimulatory molecules (CD80, CD86) on microglia: upregulates
[7]
  FoxP3 induction in T cells: inhibiting FoxP3 induction
[8]
  FoxP3 in natural Tregs: down-regulates FoxP3
[9]
  tumor growth: statistically significant suppression of tumor growth
[10]; immunohistochemical analysis
  duration of p-STAT3 inhibition in excised tumors after the final injection: at least 3 weeks
[10]; systemic intraperitoneal administration, 30-day follow-up
  tumor growth: significant inhibition of tumor growth

## EGF: growth factor, stimulus in HaCaT pSTAT3 test (NSDSECPLSHDGYCLHDGVCMYIEALDKYACNCVVGYIGERCQYRDLKWWELR; Epidermal growth factor; UniProt P01133 971-1023, looked up)
[1]
  Relative level of pSAT3: + (+=less than 200 fold)

## IL-6: cytokine, stimulus in HaCaT pSTAT3 test
[1]
  STAT3 activation in keratinocytes: potently induce STAT3 activation
  Relative level of pSAT3: +++++ (+++++=400-500 fold)

## Cc1ccc(S(=O)(=O)OCC(=O)Nc2ccc(C(=O)O)c(O)c2)cc1 [Example S31-301]
[11]
  in vivo tumor growth: suppress the in vivo growth of human breast tumor xenografts
[12]
  growth and apoptosis: inhibit growth and induce apoptosis preferentially

## N#C/C(=C\c1ccc(O)c(O)c1)C(=O)NCc1ccccc1 [AG490, (E)-N-benzyl-2-cyano-3-(3,4-dihydroxyphenyl)acrylamide]
STAT3
  IC50: > 50 µM

## CC(C)(O)/C=C/C(=O)[C@](C)(O)[C@H]1[C@H](O)C[C@@]2(C)[C@@H]3CC=C4[C@@H](C=C(O)C(=O)C4(C)C)[C@]3(C)C(=O)C[C@]12C [JSI-124, cucurbitacin I]
[4]
  histological examination of the systemic organs: failed to reveal any major toxicities
[13]
  induced autoimmunity: no evidence of induced autoimmunity
[14]
  in vitro activity: in vitro activity against lymphoma and cervical cancer
Intracerebral tumors
  survival: prolonged survival
[15]
  in vivo tumor growth: inhibit the in vivo growth of human breast carcinoma and syngeneic murine melanoma

From patent US20130129675A1, “INTERFERON THERAPIES IN COMBINATION WITH BLOCKADE OF STAT3 ACTIVATION” (BOARD OF REGENTS, THE UNIVERSITY OF TEXAS SYSTEM, priority 2009, published 2013)
